Results taken from patent US8404844B2, “Perylene semiconductors and methods of preparation and use thereof” (BASF SE, priority 2008, dated 2013).
Converted amounts (≈) assume the structure as drawn.

Legend:
[1] = Cyclic voltammetry (reduction potential); assay type: physicochemical; settings: 0.1 M THF/TBAPF6, under N2, bare Ag reference electrode, scan 60-150 mV/s
Method: Cyclic voltammetry experiments were conducted using an Epsilon single-channel […] and a BAS C3 cell stand (a one-compartment cell with a C disk working electrode, a bare Ag reference electrode, and a Pt wire counter electrode). Appropriate precautions were taken to eliminate water and oxygen during measurement. All measurements were performed under N2 by dissolving the compound (1-3 mg) in a 0.1 M THF/TBAPF6 solutions with scanning rates between 60-150 mV/s. When the voltammograms are (quasi)reversible, it is possible to extract formal potentials (E^1/2) as the midpoints between peak potentials for the forward and reverse scans.
Table 1 summarizes certain physical and electrical properties of some compounds of the present teachings, including Ered values obtained from the cyclic voltammetry experiments. N,N′-Bis(4-n-octyl)-1,7-dicyanoperylene-3,4:9,10-bis(dicarboximide) (PDI8-CN2), N,N′-bis[(3S)-3,7-dimethyl-6-octenyl]-1,7-dicyanoperylene-3,4:9,10-bis(dicarboximide) (PDICitr-CN2), N,N′-bis(2-ethylhexyl)-1,7-dicyanoperylene-3,4:9,10-bis(dicarboximide) (PDI2EH-CN2), and N,N′-bis(2-methylhexyl)-1,7-dicyanoperylene-3,4:9,10-bis(dicarboximide) (PDI2MH-CN2) were included as comparative representative compounds.

[2] = Solubility in organic solvents; assay type: physicochemical; settings: for Solubility CHCl3: chloroform; for Solubility DCB: dichlorobenzene (DCB); for Solubility compared to similar compounds: compared to PDI8-CN2, PDI2EH-CN2, PDICitr-CN2 and PDI2MH-CN2
Method: As certain embodiments of the compounds disclosed herein can be soluble in common solvents, the present teachings can offer processing advantages in fabricating electrical devices such as thin film semiconductors, field-effect devices, organic light emitting diodes (OLEDs), organic photovoltaics, photodetectors, capacitors, and sensors. As used herein, a compound can be considered soluble in a solvent when at least 1 mg of the compound can be dissolved in 1 mL of the solvent. Examples of common organic solvents include petroleum ethers; acetonitrile; aromatic hydrocarbons such as benzene, toluene, xylene, and mesitylene; ketones such as acetone and methyl ethyl ketone; ethers such as tetrahydrofuran, dioxane, bis(2-methoxyethyl)ether, diethyl ether, di-isopropyl ether, and t-butyl methyl ether; alcohols such as methanol, ethanol, butanol, and isopropyl alcohol; aliphatic hydrocarbons such as hexanes; acetates such as methyl acetate, ethyl acetate, methyl formate, ethyl formate, isopropyl acetate, and butyl acetate; amides such as dimethylformamide and dimethylacetamide; sulfoxides such as dimethylsulfoxide; halogenated aliphatic and aromatic hydrocarbons such as dichloromethane, chloroform, ethylene chloride, chlorobenzene, dichlorobenzene, and trichlorobenzene; and cyclic solvents such as cyclopentanone, cyclohexanone, and 2-methypyrrolidone. Examples of common inorganic solvents include water and ionic liquids.
Greater solubilities (2-10 times) can be achieved using warm solvents.

Structure (SMILES) | Ered [1] [V] | Solubility CHCl3 [2] [mg/mL] | Solubility DCB [2] [mg/mL] | Solubility (DCB, 70° C.) [2] [mg/mL] | Solubility compared to similar compounds [2]
CCCC(CC)N1C(=O)c2ccc3c4c(Br)cc5c6c(ccc(c7c(Br)cc(c2c37)C1=O)c64)C(=O)N(C(CC)CCC)C5=O (stereo not shown) [PDI1EB-Br2, N,N′-bis(1-ethylbutyl)-1,7-dibromoperylene-3,4:9,10-bis(dicarboximide)] | −0.34 | – | – | – | –
CCCC(CC)N1C(=O)c2ccc3c4c(C#N)cc5c6c(ccc(c7c(C#N)cc(c2c37)C1=O)c64)C(=O)N(C(CC)CCC)C5=O (stereo not shown) [PDI1EB-CN2, N,N′-bis(1-ethylbutyl)-1,7-dicyanoperylene-3,4:9,10-bis(dicarboximide)] | −0.106 | 8 (≈ 13.1 mM) | 10 (≈ 16.4 mM) | – | –
CCC(CC)N1C(=O)c2ccc3c4c(Br)cc5c6c(ccc(c7c(Br)cc(c2c37)C1=O)c64)C(=O)N(C(CC)CC)C5=O [PDI1EPr-Br2, N,N′-bis(1-ethylpropyl)-1,7-dibromoperylene-3,4:9,10-bis(dicarboximide)] | −0.38 | – | – | – | –
CCC(CC)N1C(=O)c2ccc3c4c(C#N)cc5c6c(ccc(c7c(C#N)cc(c2c37)C1=O)c64)C(=O)N(C(CC)CC)C5=O [PDI1EPr-CN2, N,N′-bis(1-ethylpropyl)-1,7-dicyanoperylene-3,4:9,10-bis(dicarboximide)] | −0.101 | – | 10 (≈ 17.2 mM) | – | –
CC(C)CC(C)N1C(=O)c2ccc3c4c(Br)cc5c6c(ccc(c7c(Br)cc(c2c37)C1=O)c64)C(=O)N(C(C)CC(C)C)C5=O (stereo not shown) [PDI1M3MB-Br2, N,N′-bis(1,3-dimethylbutyl)-1,7-dibromoperylene-3,4:9,10-bis(dicarboximide)] | −0.39 | – | – | – | –
CC(C)CC(C)N1C(=O)c2ccc3c4c(C#N)cc5c6c(ccc(c7c(C#N)cc(c2c37)C1=O)c64)C(=O)N(C(C)CC(C)C)C5=O (stereo not shown) [PDI1M3MB-CN2, N,N′-bis(1,3-dimethylbutyl)-1,7-dicyanoperylene-3,4:9,10-bis(dicarboximide)] | −0.088 | 30 (≈ 49.3 mM) | 37 (≈ 60.8 mM) | 37.1 (≈ 60.9 mM) | unexpected increase in solubility
CCCC(C)N1C(=O)c2ccc3c4c(Br)cc5c6c(ccc(c7c(Br)cc(c2c37)C1=O)c64)C(=O)N(C(C)CCC)C5=O (stereo not shown) [PDI1MB-Br2, N,N′-bis(1-methylbutyl)-1,7-dibromoperylene-3,4:9,10-bis(dicarboximide)] | −0.39 | – | – | – | –
CCCC(C)N1C(=O)c2ccc3c4c(C#N)cc5c6c(ccc(c7c(C#N)cc(c2c37)C1=O)c64)C(=O)N(C(C)CCC)C5=O (stereo not shown) [PDI1MB-CN2, N,N′-bis(1-methylbutyl)-1,7-dicyanoperylene-3,4:9,10-bis(dicarboximide)] | −0.083 | – | 5 (≈ 8.61 mM) | – | –
CCCCCC(C)N1C(=O)c2ccc3c4c(Br)cc5c6c(ccc(c7c(Br)cc(c2c37)C1=O)c64)C(=O)N(C(C)CCCCC)C5=O (stereo not shown) [PDI1MH-Br2, N,N′-bis(1-methylhexyl)-1,7-dibromoperylene-3,4:9,10-bis(dicarboximide)] | −0.38 | – | – | – | –
CCCCCC(C)N1C(=O)c2ccc3c4c(C#N)cc5c6c(ccc(c7c(C#N)cc(c2c37)C1=O)c64)C(=O)N(C(C)CCCCC)C5=O (stereo not shown) [PDI1MH-CN2, N,N′-bis(1-methylhexyl)-1,7-dicyanoperylene-3,4:9,10-bis(dicarboximide)] | −0.094 | 54 (≈ 84.8 mM) | 52 (≈ 81.7 mM) | – | unexpected increase in solubility
CCCCC(C)N1C(=O)c2ccc3c4c(Br)cc5c6c(ccc(c7c(Br)cc(c2c37)C1=O)c64)C(=O)N(C(C)CCCC)C5=O (stereo not shown) [PDI1MP-Br2, N,N′-bis(1-methylpentyl)-1,7-dibromoperylene-3,4:9,10-bis(dicarboximide)] | −0.41 | – | – | – | –
CCCCC(C)N1C(=O)c2ccc3c4c(C#N)cc5c6c(ccc(c7c(C#N)cc(c2c37)C1=O)c64)C(=O)N(C(C)CCCC)C5=O (stereo not shown) [PDI1MP-CN2, N,N′-bis(1-methylpentyl)-1,7-dicyanoperylene-3,4:9,10-bis(dicarboximide)] | −0.071 | 43 (≈ 70.6 mM) | 40 (≈ 65.7 mM) | 41.8 (≈ 68.7 mM) | unexpected increase in solubility
CCC(C)N1C(=O)c2ccc3c4c(Br)cc5c6c(ccc(c7c(Br)cc(c2c37)C1=O)c64)C(=O)N(C(C)CC)C5=O (stereo not shown) [PDI1MPr-Br2, N,N′-bis(1-methylpropyl)-1,7-dibromoperylene-3,4:9,10-bis(dicarboximide)] | −0.40 | – | – | – | –
CCC(C)N1C(=O)c2ccc3c4c(C#N)cc5c6c(ccc(c7c(C#N)cc(c2c37)C1=O)c64)C(=O)N(C(C)CC)C5=O (stereo not shown) [PDI1MPr-CN2, N,N′-bis(1-methylpropyl)-1,7-dicyanoperylene-3,4:9,10-bis(dicarboximide)] | −0.091 | – | 8 (≈ 14.5 mM) | – | –
CCCCC(CC)CN1C(=O)c2ccc3c4c(C#N)cc5c6c(ccc(c7c(C#N)cc(c2c37)C1=O)c64)C(=O)N(CC(CC)CCCC)C5=O (stereo not shown) [PDI2EH-CN2, N,N′-bis(2-ethylhexyl)-1,7-dicyanoperylene-3,4:9,10-bis(dicarboximide), reference compound] | −0.130 | 5 (≈ 7.52 mM) | 5 (≈ 7.52 mM) | – | –
CCCCC(C)CN1C(=O)c2ccc3c4c(C#N)cc5c6c(ccc(c7c(C#N)cc(c2c37)C1=O)c64)C(=O)N(CC(C)CCCC)C5=O (stereo not shown) [PDI2MH-CN2, N,N′-bis(2-methylhexyl)-1,7-dicyanoperylene-3,4:9,10-bis(dicarboximide), reference compound] | −0.120 | – | 5 (≈ 7.85 mM) | – | –
CCCCCCCCN1C(=O)c2ccc3c4c(C#N)cc5c6c(ccc(c7c(C#N)cc(c2c37)C1=O)c64)C(=O)N(CCCCCCCC)C5=O [PDI8-CN2, N,N′-Bis(4-n-octyl)-1,7-dicyanoperylene-3,4:9,10-bis(dicarboximide), reference compound] | −0.150 | 4 (≈ 6.02 mM) | 4 (≈ 6.02 mM) | – | –
CC(C)=CCC[C@H](C)CCN1C(=O)c2ccc3c4c(C#N)cc5c6c(ccc(c7c(C#N)cc(c2c37)C1=O)c64)C(=O)N(CC[C@@H](C)CCC=C(C)C)C5=O [PDICitr-CN2, N,N′-bis[(3S)-3,7-dimethyl-6-octenyl]-1,7-dicyanoperylene-3,4:9,10-bis(dicarboximide), reference compound] | −0.142 | – | 8 (≈ 11.2 mM) | – | –
